The text below walks through data of patent US20240024488A1, “COMPOUNDS AND USES THEREOF” (Foghorn Therapeutics Inc., priority 2020, published 2024).

Experiment [1] addresses T1, HiBit-BRM fusion protein (Homo sapiens, UniProt P51531).
T1 construct: expressed in transfected cells
Nature of the experiment: HiBiT-BRM cell-based degradation assay (Nano-Glo HiBiT Lytic Detection, 24 h). As to conditions: HeLa cell line expressing HiBiT-BRM; for DC50: read-out: BRM HiBit Degradation IC50. Summed up:
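Stable HiBiT-BRM HeLa line; 24 h compound exposure, top final 30 μM, 3-fold, 10 pts in duplicate. Lytic HiBiT/LgBiT luminescence readout. % degradation vs DMSO (0%) and 2 μM known BRM/BRG1 degrader (100%).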
For orientation: HiBiT is a short tag that completes a luciferase, so light tracks the accessible tagged protein.

Experiment [2] has as its target T2, HiBit-BRG1 fusion protein (Homo sapiens, UniProt P51532).
T2 construct: expressed in transfected cells
Nature of the experiment: HiBiT-BRG1 cell-based degradation assay (Nano-Glo HiBiT Lytic Detection, 24 h). As to conditions: HeLa cell line expressing HiBit-BRG1 and LgBit; for Dmax: read-out: BRG1 HiBit Degradation Maximum (%); for DC50: read-out: BRMG1 HiBit Degradation IC50. Summed up:
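Stable HeLa line co-expressing HiBit-BRG1 and LgBit, 5000 cells/well, treated 24 h in a tissue culture incubator. Lysed with Nano-Glo HiBiT lytic reagent, luminescence read. % degradation normalized to DMSO (high control) and 2 μM reference BRM/BRG1 degrader (low control).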

T2 sequence (P51532 whole entry, the tested form may be a part): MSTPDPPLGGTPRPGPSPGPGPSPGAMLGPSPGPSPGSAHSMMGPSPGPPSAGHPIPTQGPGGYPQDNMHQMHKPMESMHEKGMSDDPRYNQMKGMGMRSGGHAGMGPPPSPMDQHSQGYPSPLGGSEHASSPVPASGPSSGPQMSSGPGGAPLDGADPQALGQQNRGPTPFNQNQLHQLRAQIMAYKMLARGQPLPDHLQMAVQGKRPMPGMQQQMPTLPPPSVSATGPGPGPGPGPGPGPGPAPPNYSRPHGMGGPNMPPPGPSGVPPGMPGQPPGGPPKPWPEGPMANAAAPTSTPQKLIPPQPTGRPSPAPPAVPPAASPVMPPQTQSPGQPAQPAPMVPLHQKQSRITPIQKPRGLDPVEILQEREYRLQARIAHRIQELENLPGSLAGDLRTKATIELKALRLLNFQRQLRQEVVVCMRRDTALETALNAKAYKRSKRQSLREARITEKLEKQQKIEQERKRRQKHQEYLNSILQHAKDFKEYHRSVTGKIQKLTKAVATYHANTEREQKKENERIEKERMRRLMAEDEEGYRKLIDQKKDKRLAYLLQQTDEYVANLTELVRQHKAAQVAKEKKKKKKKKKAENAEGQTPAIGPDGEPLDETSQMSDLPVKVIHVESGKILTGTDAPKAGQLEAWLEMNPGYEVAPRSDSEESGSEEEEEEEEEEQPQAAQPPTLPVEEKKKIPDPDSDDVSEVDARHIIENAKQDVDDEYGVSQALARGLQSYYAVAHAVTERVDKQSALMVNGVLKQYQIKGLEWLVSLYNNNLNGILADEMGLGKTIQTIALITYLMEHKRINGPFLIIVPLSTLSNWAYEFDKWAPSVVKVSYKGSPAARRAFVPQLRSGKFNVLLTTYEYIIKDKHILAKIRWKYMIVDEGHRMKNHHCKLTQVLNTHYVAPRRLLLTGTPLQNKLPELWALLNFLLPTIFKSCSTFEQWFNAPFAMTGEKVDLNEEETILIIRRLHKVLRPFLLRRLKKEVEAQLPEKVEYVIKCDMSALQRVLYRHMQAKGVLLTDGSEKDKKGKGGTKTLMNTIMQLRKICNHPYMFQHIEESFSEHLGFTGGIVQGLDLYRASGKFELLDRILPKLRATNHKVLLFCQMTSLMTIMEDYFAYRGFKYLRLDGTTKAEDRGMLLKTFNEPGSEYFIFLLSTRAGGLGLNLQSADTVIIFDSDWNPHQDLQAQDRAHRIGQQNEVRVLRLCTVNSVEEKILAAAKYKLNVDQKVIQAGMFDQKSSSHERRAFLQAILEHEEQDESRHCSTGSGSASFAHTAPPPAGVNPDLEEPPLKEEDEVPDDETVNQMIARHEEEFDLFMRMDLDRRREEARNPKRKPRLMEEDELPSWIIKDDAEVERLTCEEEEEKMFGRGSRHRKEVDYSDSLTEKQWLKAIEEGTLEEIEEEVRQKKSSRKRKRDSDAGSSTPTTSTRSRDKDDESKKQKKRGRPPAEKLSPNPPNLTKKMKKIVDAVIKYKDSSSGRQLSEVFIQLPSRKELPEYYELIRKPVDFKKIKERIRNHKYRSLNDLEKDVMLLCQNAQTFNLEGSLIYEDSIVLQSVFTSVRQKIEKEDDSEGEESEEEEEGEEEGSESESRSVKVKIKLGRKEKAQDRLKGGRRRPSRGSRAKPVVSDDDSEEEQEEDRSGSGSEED
T1 sequence (P51531 whole entry, the tested form may be a part): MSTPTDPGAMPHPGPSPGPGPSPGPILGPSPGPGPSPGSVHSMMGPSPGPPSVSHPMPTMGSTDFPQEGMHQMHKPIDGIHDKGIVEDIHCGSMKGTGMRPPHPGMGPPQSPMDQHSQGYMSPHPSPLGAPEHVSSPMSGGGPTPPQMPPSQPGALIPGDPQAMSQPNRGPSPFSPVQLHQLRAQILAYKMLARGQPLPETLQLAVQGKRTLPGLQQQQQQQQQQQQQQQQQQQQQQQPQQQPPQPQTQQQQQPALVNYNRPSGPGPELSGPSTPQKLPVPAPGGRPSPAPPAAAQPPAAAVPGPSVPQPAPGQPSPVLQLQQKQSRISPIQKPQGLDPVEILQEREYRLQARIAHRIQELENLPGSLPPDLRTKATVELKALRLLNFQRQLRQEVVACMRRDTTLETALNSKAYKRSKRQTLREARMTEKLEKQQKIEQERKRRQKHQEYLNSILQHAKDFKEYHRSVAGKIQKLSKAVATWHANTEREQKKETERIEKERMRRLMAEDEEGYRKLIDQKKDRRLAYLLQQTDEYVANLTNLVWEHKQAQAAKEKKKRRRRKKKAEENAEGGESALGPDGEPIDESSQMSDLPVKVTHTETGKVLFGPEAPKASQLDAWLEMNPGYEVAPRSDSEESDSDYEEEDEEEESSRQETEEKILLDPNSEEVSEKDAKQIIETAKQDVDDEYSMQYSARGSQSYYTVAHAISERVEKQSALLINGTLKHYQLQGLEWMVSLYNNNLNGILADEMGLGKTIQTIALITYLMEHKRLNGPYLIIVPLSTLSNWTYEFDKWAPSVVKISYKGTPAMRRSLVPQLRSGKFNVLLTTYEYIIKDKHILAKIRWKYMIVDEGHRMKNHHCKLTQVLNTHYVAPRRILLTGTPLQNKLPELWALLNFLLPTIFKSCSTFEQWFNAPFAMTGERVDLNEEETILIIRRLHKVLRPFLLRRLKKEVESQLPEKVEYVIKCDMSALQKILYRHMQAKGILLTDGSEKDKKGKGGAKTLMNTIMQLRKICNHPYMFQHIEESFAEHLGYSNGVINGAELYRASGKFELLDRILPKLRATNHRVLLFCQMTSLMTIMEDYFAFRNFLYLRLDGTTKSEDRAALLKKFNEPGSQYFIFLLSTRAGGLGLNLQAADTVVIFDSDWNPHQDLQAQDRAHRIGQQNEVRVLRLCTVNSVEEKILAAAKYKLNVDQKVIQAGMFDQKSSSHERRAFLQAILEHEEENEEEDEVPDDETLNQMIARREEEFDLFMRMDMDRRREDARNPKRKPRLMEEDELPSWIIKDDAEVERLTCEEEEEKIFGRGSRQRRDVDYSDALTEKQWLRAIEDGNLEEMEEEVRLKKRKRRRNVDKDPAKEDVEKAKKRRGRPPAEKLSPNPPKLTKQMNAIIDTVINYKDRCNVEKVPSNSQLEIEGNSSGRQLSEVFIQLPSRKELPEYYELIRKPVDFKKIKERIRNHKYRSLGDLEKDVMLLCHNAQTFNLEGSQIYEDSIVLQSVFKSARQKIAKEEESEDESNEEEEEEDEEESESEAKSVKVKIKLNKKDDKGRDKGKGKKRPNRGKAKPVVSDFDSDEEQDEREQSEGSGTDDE

As for `Cc1ncsc1-c1ccc([C@H](C)NC(=O)[C@@H]2C[C@@H](O)CN2C(=O)[C@@H](c2cc(N3CCN(C(=O)C(=O)N4CC(c5cc6cc(-c7ccccc7O)nnc6[nH]5)C4)CC3)no2)C(C)C)cc1` (single isomer, unassigned) [Compound 234], in experiment [1], the “BRM HiBit Degradation Maximum (%)” value is “A (“A” indicates maximum degradation ≥ 75%)” and the DC50 is over 100 nM. The Dmax in experiment [2] was under 50%.
Consider `Cc1ncsc1-c1ccc([C@H](C)NC(=O)[C@@H]2C[C@@H](O)CN2C(=O)[C@@H](c2cc(N3CCN(CC(=O)N4CC(c5cc6cc(-c7ccccc7O)nnc6[nH]5)C4)CC3)no2)C(C)C)cc1` (racemic) [Compound 263, (2S,4R)-4-hydroxy-1-((R)-2-(3-(4-(2-(3-(3-(2-hydroxyphenyl)-7H-pyrrolo[2,3-c]pyridazin-6-yl)azetidin-1-yl)-2-oxoethyl)piperazin-1-yl)isoxazol-5-yl)-3-methylbutanoyl)-N-((S)-1-(4-(4-methylthiazol-5-yl)phenyl)ethyl)pyrrolidine-2-carboxamide], for which, in experiment [1], the “BRM HiBit Degradation Maximum (%)” value is listed as “A (“A” indicates maximum degradation ≥ 75%)” and the DC50 is over 100 nM. In addition, in experiment [2], the Dmax was over 75% and the DC50 is over 1000 nM.
`Cc1ncsc1-c1ccc([C@H](C)NC(=O)[C@@H]2C[C@@H](O)CN2C(=O)[C@@H](c2cc(OCCN3[C@@H]4CC[C@H]3CN(c3cc5cc(-c6ccccc6O)nnc5[nH]3)C4)no2)C(C)C)cc1` (racemic) [Compound 245, (2S,4R)-4-hydroxy-1-((2R)-2-(3-(2-(3-(3-(2-hydroxyphenyl)-7H-pyrrolo[2,3-c]pyridazin-6-yl)-3,8-diazabicyclo[3.2.1]octan-8-yl)ethoxy)isoxazol-5-yl)-3-methylbutanoyl)-N-((S)-1-(4-(4-methylthiazol-5-yl)phenyl)ethyl)pyrrolidine-2-carboxamide]: in experiment [1], the “BRM HiBit Degradation Maximum (%)” value was “A (“A” indicates maximum degradation ≥ 75%)” and the DC50 was over 10 nM. Moreover, in experiment [2], the Dmax was over 75% and the DC50 was over 100 nM.
Regarding `Cc1ncsc1-c1ccc(CNC(=O)[C@@H]2C[C@@H](O)CN2C(=O)[C@@H](NC(=O)CCN2CC(c3cc4cc(-c5ccccc5O)nnc4[nH]3)C2)C(C)(C)C)cc1` [Compound 16, (2S,4R)-4-hydroxy-1-((S)-2-(3-(3-(3-(2-hydroxyphenyl)-7H-pyrrolo[2,3-c]pyridazin-6-yl)azetidin-1-yl)propanamido)-3,3-dimethylbutanoyl)-N-(4-(4-methylthiazol-5-yl)benzyl)pyrrolidine-2-carboxamide], the “BRM HiBit Degradation Maximum (%)” value in experiment [1] is reported as “C (“C” indicates maximum degradation < 50%)”. Besides, the Dmax in experiment [2] is under 50%.
For the molecule `Cc1ncsc1-c1ccc(CNC(=O)[C@@H]2C[C@@H](O)CN2C(=O)[C@@H](NC(=O)CCCCCCCCCCCCCCCC(=O)N2CC(c3cc4cc(-c5ccccc5O)nnc4[nH]3)C2)C(C)(C)C)cc1` [Compound 22, (2S,4R)-4-hydroxy-1-((S)-2-(17-(3-(3-(2-hydroxyphenyl)-7H-pyrrolo[2,3-c]pyridazin-6-yl)azetidin-1-yl)-17-oxoheptadecanamido)-3,3-dimethylbutanoyl)-N-(4-(4-methylthiazol-5-yl)benzyl)pyrrolidine-2-carboxamide], in experiment [1], the “BRM HiBit Degradation Maximum (%)” value is “C (“C” indicates maximum degradation < 50%)”. In experiment [2], the Dmax is under 50%.
As to `Cc1ncsc1-c1ccc([C@H](C)NC(=O)[C@@H]2C[C@@H](O)CN2C(=O)[C@@H](c2cc(N3CCC(C(=O)N4CCc5[nH]c6nnc(-c7ccccc7O)cc6c5[C@H]4C)CC3)no2)C(C)C)cc1` (racemic) [Compound 82, (2S,4R)-4-hydroxy-1-((R)-2-(3-(4-((R)-3-(2-hydroxyphenyl)-5-methyl-6,7,8,9-tetrahydro-5H-pyrido[3′,4′:4,5]pyrrolo[2,3-c]pyridazine-6-carbonyl)piperidin-1-yl)isoxazol-5-yl)-3-methylbutanoyl)-N-((S)-1-(4-(4-methylthiazol-5-yl)phenyl)ethyl)pyrrolidine-2-carboxamide], in experiment [1], the “BRM HiBit Degradation Maximum (%)” value is given as “A (“A” indicates maximum degradation ≥ 75%)” and the DC50 was under 10 nM. Also, in experiment [2], the Dmax is over 75% and the DC50 was over 100 nM.
As for `Cc1ncsc1-c1ccc([C@H](C)NC(=O)[C@@H]2C[C@@H](O)CN2C(=O)[C@@H](c2cc(OCCCN3C[C@@H]4[C@H](C3)[C@H]4c3c(C)[nH]c4nnc(-c5ccccc5O)cc34)no2)C(C)C)cc1` (racemic) [Compound 128, (2S,4R)-4-hydroxy-1-((R)-2-(3-(3-((1R,5S,6S)-6-(3-(2-hydroxyphenyl)-6-methyl-7H-pyrrolo[2,3-c]pyridazin-5-yl)-3-azabicyclo[3.1.0]hexan-3-yl)propoxy)isoxazol-5-yl)-3-methylbutanoyl)-N-((S)-1-(4-(4-methylthiazol-5-yl)phenyl)ethyl)pyrrolidine-2-carboxamide], in experiment [1], the “BRM HiBit Degradation Maximum (%)” value was “A (“A” indicates maximum degradation ≥ 75%)” and the DC50 is under 10 nM. In experiment [2], the Dmax was over 75% and the DC50 was over 10 nM.
The corresponding values for `Cc1ncsc1-c1ccc([C@H](C)NC(=O)[C@@H]2C[C@@H](O)CN2C(=O)[C@@H](c2cc(OCC(=O)N[C@@H]3CCc4[nH]c5nnc(-c6ccccc6O)cc5c4C3)no2)C(C)C)cc1` [Compound 150, (2S,4R)-4-hydroxy-1-((R)-2-(3-(2-(((R)-3-(2-hydroxyphenyl)-6,7,8,9-tetrahydro-5H-pyridazino[3,4-b]indol-6-yl)amino)-2-oxoethoxy)isoxazol-5-yl)-3-methylbutanoyl)-N-((S)-1-(4-(4-methylthiazol-5-yl)phenyl)ethyl)pyrrolidine-2-carboxamide] are “A (“A” indicates maximum degradation ≥ 75%)”, over 10 nM, over 50% and over 100 nM.
In the case of `Cc1ncsc1-c1ccc(CNC(=O)[C@@H]2C[C@@H](O)CN2C(=O)[C@@H](NC(=O)CCCCCCCCCCCCCCCCC(=O)N2CC(c3c[nH]c4nnc(-c5ccccc5O)cc34)C2)C(C)(C)C)cc1` [Compound 38, (2S,4R)-4-hydroxy-1-((S)-2-(18-(3-(3-(2-hydroxyphenyl)-7H-pyrrolo[2,3-c]pyridazin-5-yl)azetidin-1-yl)-18-oxooctadecanamido)-3,3-dimethylbutanoyl)-N-(4-(4-methylthiazol-5-yl)benzyl)pyrrolidine-2-carboxamide], in experiment [1], the “BRM HiBit Degradation Maximum (%)” value is “C (“C” indicates maximum degradation < 50%)”. Further, the Dmax in experiment [2] was under 50%.
Regarding `Cc1ncsc1-c1ccc([C@H](C)NC(=O)[C@@H]2C[C@@H](O)CN2C(=O)[C@@H](c2cc(OCCN3CCC4(CC3)CC(c3cc5cc(-c6ccccc6O)nnc5[nH]3)C4)no2)C(C)C)cc1` (racemic) [Compound 290, (2S,4R)-4-hydroxy-1-((R)-2-(3-(2-(2-(3-(2-hydroxyphenyl)-7H-pyrrolo[2,3-c]pyridazin-6-yl)-7-azaspiro[3.5]nonan-7-yl)ethoxy)isoxazol-5-yl)-3-methylbutanoyl)-N-((S)-1-(4-(4-methylthiazol-5-yl)phenyl)ethyl)pyrrolidine-2-carboxamide], in experiment [1], the “BRM HiBit Degradation Maximum (%)” value is recorded as “A (“A” indicates maximum degradation ≥ 75%)” and the DC50 was over 10 nM. Also, in experiment [2], the Dmax is over 50% and the DC50 was over 100 nM.
